From ChEMBL document CHEMBL1134203, “Discovery of potent and selective succinyl hydroxamate inhibitors of matrix metalloprotease-3 (stromelysin-1)” (Bioorg Med Chem Lett, 2001)

Columns and labels:
[1] = molecular target: Matrix metalloproteinase-14 (Homo sapiens, UniProt P50281)
[2] = molecular target: Matrix metalloproteinase-9 (Homo sapiens, UniProt P14780)
Matrix metalloproteinase-9, sequence (P14780 whole entry): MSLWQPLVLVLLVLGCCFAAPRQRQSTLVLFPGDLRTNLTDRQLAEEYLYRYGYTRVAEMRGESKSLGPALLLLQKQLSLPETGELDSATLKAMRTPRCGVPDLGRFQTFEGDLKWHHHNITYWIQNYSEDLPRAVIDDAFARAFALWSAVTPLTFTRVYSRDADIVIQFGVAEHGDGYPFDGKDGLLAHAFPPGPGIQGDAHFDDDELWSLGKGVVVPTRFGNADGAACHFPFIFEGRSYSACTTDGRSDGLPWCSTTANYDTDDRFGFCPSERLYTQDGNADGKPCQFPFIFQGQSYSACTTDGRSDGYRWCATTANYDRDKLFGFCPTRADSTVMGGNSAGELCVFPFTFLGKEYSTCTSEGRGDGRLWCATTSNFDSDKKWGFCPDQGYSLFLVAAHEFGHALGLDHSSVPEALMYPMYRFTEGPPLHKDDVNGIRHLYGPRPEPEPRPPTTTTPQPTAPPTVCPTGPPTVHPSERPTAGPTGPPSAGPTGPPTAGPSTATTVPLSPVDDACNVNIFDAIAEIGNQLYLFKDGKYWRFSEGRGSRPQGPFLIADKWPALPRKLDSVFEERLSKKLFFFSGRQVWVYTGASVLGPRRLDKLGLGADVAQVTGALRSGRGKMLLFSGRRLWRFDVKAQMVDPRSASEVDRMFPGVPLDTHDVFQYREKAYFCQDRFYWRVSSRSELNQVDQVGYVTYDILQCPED

IC50 [1]: 1900 nM | IC50 [2]: 840 nM
SMILES: Cc1cc(CCC[C@H](CC(=O)NO)C(=O)N[C@H](C(=O)N[C@H](C)c2ccccc2)C(C)(C)C)ccc1-c1ccccc1
